Measurements taken from article PMC5218480 (PLoS ONE, 2017).

Tested on: MV-4-11 cells
Assay: Gene expression microarray analysis (Affymetrix PrimeView) and GSEA
Type: cell-based, human
Design: RFU PODN (11730768_x_at) / Fold change /veh PODN (11730768_x_at) / RFU LINC00158 (11744669_a_at) / Fold change /veh LINC00158 (11744669_a_at) / RFU DUSP10 (11751237_a_at) / Fold change /veh DUSP10 (11751237_a_at) / RFU ID3 (11757404_x_at) / Fold change /veh ID3 (11757404_x_at) / RFU PLEKHG5 (11737974_s_at) / Fold change /veh PLEKHG5 (11737974_s_at) / RFU LRRC4B (11730491_at) / Fold change /veh LRRC4B (11730491_at) / RFU GIMAP4 (11747438_a_at) / Fold change /veh GIMAP4 (11747438_a_at) / RFU KRT8 (11758183_x_at) / Fold change /veh KRT8 (11758183_x_at) / RFU CNN1 (11734310_a_at) / Fold change /veh CNN1 (11734310_a_at) / RFU VPS37D (11726825_at) / Fold change /veh VPS37D (11726825_at) / RFU C10orf10 (11716522_x_at) / Fold change /veh C10orf10 (11716522_x_at) / RFU KIR2DL2 /// KIR2DL4 /// KIR2DL5A /// KIR2DL5B /// KIR2DS1 /// KIR2DS2 /// KIR2DS3 /// KIR2DS4 /// KIR3DL3 /// KIR3DL3 /// KIR3DS1 (11738374_at) / Fold change /veh KIR2DL2 /// KIR2DL4 /// KIR2DL5A /// KIR2DL5B /// KIR2DS1 /// KIR2DS2 /// KIR2DS3 /// KIR2DS4 /// KIR3DL3 /// KIR3DL3 /// KIR3DS1 (11738374_at) / RFU C1QL1 (11718748_at) / Fold change /veh C1QL1 (11718748_at) / RFU TMPRSS4 (11747572_a_at) / Fold change /veh TMPRSS4 (11747572_a_at) / RFU HAMP (11756126_x_at) / Fold change /veh HAMP (11756126_x_at) / RFU RNFT2 (11725882_a_at) / Fold change /veh RNFT2 (11725882_a_at) / RFU NR4A2 (11747474_a_at) / Fold change /veh NR4A2 (11747474_a_at) / RFU ABCC12 (11746883_a_at) / Fold change /veh ABCC12 (11746883_a_at) / RFU TMEM136 (11760407_x_at) / Fold change /veh TMEM136 (11760407_x_at) / RFU CLDN22 /// WWC2 (11732394_at) / Fold change /veh CLDN22 /// WWC2 (11732394_at) / RFU HLA-DPB1 (11760878_x_at) / Fold change /veh HLA-DPB1 (11760878_x_at) / RFU SPINT1 (11716480_a_at) / Fold change /veh SPINT1 (11716480_a_at) / RFU GAP43 (11754022_s_at) / Fold change /veh GAP43 (11754022_s_at) / RFU A4GNT (11735810_at) / Fold change /veh A4GNT (11735810_at) / RFU PRB3 (11715151_x_at) / Fold change /veh PRB3 (11715151_x_at) / RFU TUBB4B (11761932_at) / Fold change /veh TUBB4B (11761932_at) / RFU CAPN14 (11732068_a_at) / Fold change /veh CAPN14 (11732068_a_at) / RFU TMCC2 (11721928_a_at) / Fold change /veh TMCC2 (11721928_a_at) / RFU IRGQ (11745062_a_at) / Fold change /veh IRGQ (11745062_a_at) / RFU FAM174B (11720279_a_at) / Fold change /veh FAM174B (11720279_a_at) / RFU TMPRSS4 (11748680_a_at) / Fold change /veh TMPRSS4 (11748680_a_at) / RFU FAM212B (11763350_a_at) / Fold change /veh FAM212B (11763350_a_at) / RFU PLEKHG5 (11743358_a_at) / Fold change /veh PLEKHG5 (11743358_a_at) / RFU ZSCAN30 (11745921_a_at) / Fold change /veh ZSCAN30 (11745921_a_at) / RFU CMKLR1 (11741424_a_at) / Fold change /veh CMKLR1 (11741424_a_at) / RFU LOC101060620 /// MAPK8IP1 (11723275_at) / Fold change /veh LOC101060620 /// MAPK8IP1 (11723275_at) / RFU SPTSSB (11747773_x_at) / Fold change /veh SPTSSB (11747773_x_at) / RFU PRSS12 (11739890_at) / Fold change /veh PRSS12 (11739890_at) / RFU BIN1 (11741810_x_at) / Fold change /veh BIN1 (11741810_x_at) / RFU WNT11 (11732464_a_at) / Fold change /veh WNT11 (11732464_a_at) / RFU C10orf10 (11716521_a_at) / Fold change /veh C10orf10 (11716521_a_at) / RFU C5orf56 (11738089_at) / Fold change /veh C5orf56 (11738089_at) / RFU CYB561 (11721691_x_at) / Fold change /veh CYB561 (11721691_x_at) / RFU ANKRD19P (11752326_a_at) / Fold change /veh ANKRD19P (11752326_a_at) / RFU OR2T12 /// OR2T33 /// OR2T8 (11738714_s_at) / Fold change /veh OR2T12 /// OR2T33 /// OR2T8 (11738714_s_at) / RFU VCAN (11748164_a_at) / Fold change /veh VCAN (11748164_a_at) / RFU JSRP1 (11732532_at) / Fold change /veh JSRP1 (11732532_at) / RFU KRTAP10-11 (11738290_x_at) / Fold change /veh KRTAP10-11 (11738290_x_at) / RFU MYO3A (11730013_a_at) / Fold change /veh MYO3A (11730013_a_at) / RFU EBF3 (11725865_a_at) / Fold change /veh EBF3 (11725865_a_at) / RFU CAMK2N1 (11719241_x_at) / Fold change /veh CAMK2N1 (11719241_x_at) / RFU C5orf56 (11738088_a_at) / Fold change /veh C5orf56 (11738088_a_at) / RFU OLFML3 (11715873_a_at) / Fold change /veh OLFML3 (11715873_a_at) / RFU LOC100653217 /// NTM (11731650_a_at) / Fold change /veh LOC100653217 /// NTM (11731650_a_at) / RFU MAPK11 (11762145_a_at) / Fold change /veh MAPK11 (11762145_a_at) / RFU FIZ1 (11724087_x_at) / Fold change /veh FIZ1 (11724087_x_at) / RFU OASL (11726364_x_at) / Fold change /veh OASL (11726364_x_at) / RFU SOX15 (11748057_x_at) / Fold change /veh SOX15 (11748057_x_at) / RFU CD79A (11719716_a_at) / Fold change /veh CD79A (11719716_a_at) / RFU HIST1H1D (11736915_at) / Fold change /veh HIST1H1D (11736915_at) / RFU CASKIN2 (11723855_a_at) / Fold change /veh CASKIN2 (11723855_a_at) / RFU LOC730098 (11760151_x_at) / Fold change /veh LOC730098 (11760151_x_at) / RFU OR4N2 (11742367_at) / Fold change /veh OR4N2 (11742367_at) / RFU PRRT2 (11749266_a_at) / Fold change /veh PRRT2 (11749266_a_at) / RFU SNX32 (11753110_a_at) / Fold change /veh SNX32 (11753110_a_at) / RFU CDHR5 (11726645_a_at) / Fold change /veh CDHR5 (11726645_a_at) / RFU RCAN1 (11760418_a_at) / Fold change /veh RCAN1 (11760418_a_at) / RFU FAM167A (11723789_a_at) / Fold change /veh FAM167A (11723789_a_at) / RFU FAM26E (11764081_at) / Fold change /veh FAM26E (11764081_at) / RFU ISYNA1 (11749810_s_at) / Fold change /veh ISYNA1 (11749810_s_at) / RFU ACY1 (11761880_at) / Fold change /veh ACY1 (11761880_at) / RFU 11764098_at / Fold change /veh 11764098_at / RFU SAMD14 (11745864_x_at) / Fold change /veh SAMD14 (11745864_x_at) / RFU NPB (11741838_a_at) / Fold change /veh NPB (11741838_a_at) / RFU TMPRSS6 (11731388_a_at) / Fold change /veh TMPRSS6 (11731388_a_at) / RFU KRTAP10-2 (11738614_at) / Fold change /veh KRTAP10-2 (11738614_at) / RFU ARHGAP8 /// PRR5-ARHGAP8 (11727945_x_at) / Fold change /veh ARHGAP8 /// PRR5-ARHGAP8 (11727945_x_at) / RFU KRTAP5-7 /// NADSYN1 (11734609_at) / Fold change /veh KRTAP5-7 /// NADSYN1 (11734609_at) / RFU RASL12 (11751679_a_at) / Fold change /veh RASL12 (11751679_a_at) / RFU CDKN2B (11736163_a_at) / Fold change /veh CDKN2B (11736163_a_at) / RFU PRF1 (11729649_at) / Fold change /veh PRF1 (11729649_at) / RFU, ZNF638 /// ZNF638-IT1 / Fold change vs veh, ZNF638 /// ZNF638-IT1 / RFU, PANK3 / Fold change vs veh, PANK3 / RFU, SH3YL1 / Fold change vs veh, SH3YL1 / RFU, ZEB2 / Fold change vs veh, ZEB2 / RFU, NRIP1 / Fold change vs veh, NRIP1 / RFU, PTTG1IP / Fold change vs veh, PTTG1IP / RFU, CAPN2 / Fold change vs veh, CAPN2 / RFU, MED14 / Fold change vs veh, MED14 / RFU, SNORA58 / Fold change vs veh, SNORA58 / RFU, C1orf63 / Fold change vs veh, C1orf63 / RFU, LRRFIP1 / Fold change vs veh, LRRFIP1 / RFU, NDUFAF7 / Fold change vs veh, NDUFAF7 / RFU, SLC12A2 / Fold change vs veh, SLC12A2 / RFU, IBTK / Fold change vs veh, IBTK / RFU, ESF1 / Fold change vs veh, ESF1 / Fold change vs veh, TMEM50B / RFU, TAOK1 / Fold change vs veh, TAOK1 / RFU, ACBD3 / Fold change vs veh, ACBD3 / RFU, TMA16 / Fold change vs veh, TMA16 / RFU, RWDD3 / Fold change vs veh, RWDD3 / RFU, BCAT1 / Fold change vs veh, BCAT1 / RFU, EDEM3 / Fold change vs veh, EDEM3 / RFU, TMEM33 / Fold change vs veh, TMEM33 / RFU, WDR75 / Fold change vs veh, WDR75 / RFU, AHCTF1 / Fold change vs veh, AHCTF1 / RFU, TFRC / Fold change vs veh, TFRC / RFU, ZDHHC17 / Fold change vs veh, ZDHHC17 / RFU, NOM1 / Fold change vs veh, NOM1 / RFU, ARL8B / Fold change vs veh, ARL8B / RFU, ZBTB11 / Fold change vs veh, ZBTB11 / RFU, TAMM41 / Fold change vs veh, TAMM41 / RFU, KIAA1704 /// LOC100996395 / Fold change vs veh, KIAA1704 /// LOC100996395 / RFU, ING1 / Fold change vs veh, ING1 / RFU, TRMT61B / Fold change vs veh, TRMT61B / RFU, FUBP3 / Fold change vs veh, FUBP3 / RFU, TP53 / Fold change vs veh, TP53 / RFU, TNKS2 / Fold change vs veh, TNKS2 / RFU, ZFP14 / Fold change vs veh, ZFP14 / RFU, ACTR2 / Fold change vs veh, ACTR2 / RFU, PPP3R1 / Fold change vs veh, PPP3R1 / RFU, PIK3R1 / Fold change vs veh, PIK3R1 / RFU, HNRNPA1 / Fold change vs veh, HNRNPA1 / RFU, RNF170 / Fold change vs veh, RNF170 / RFU, ZNF28 / Fold change vs veh, ZNF28 / RFU, RNGTT / Fold change vs veh, RNGTT / RFU, OGT / Fold change vs veh, OGT / RFU, BRD1 / Fold change vs veh, BRD1 / RFU, MARS / Fold change vs veh, MARS / RFU, ZNF655 / Fold change vs veh, ZNF655 / RFU, FAHD1 / Fold change vs veh, FAHD1 / RFU, BDP1 / Fold change vs veh, BDP1 / RFU, LRRCC1 / Fold change vs veh, LRRCC1 / RFU, ARID1A / Fold change vs veh, ARID1A / RFU, ZNF146 / Fold change vs veh, ZNF146 / RFU, ZNF330 / Fold change vs veh, ZNF330 / RFU, GPN3 / Fold change vs veh, GPN3 / RFU, C9orf123 / Fold change vs veh, C9orf123 / RFU, N4BP2L2 / Fold change vs veh, N4BP2L2 / RFU, ARFIP1 / Fold change vs veh, ARFIP1 / RFU, FAM179B / Fold change vs veh, FAM179B / RFU, BCL10 / Fold change vs veh, BCL10 / RFU, UHRF1BP1L / Fold change vs veh, UHRF1BP1L / RFU, BET1 / Fold change vs veh, BET1 / RFU, CNOT2 / Fold change vs veh, CNOT2 / RFU, ZNF268 / Fold change vs veh, ZNF268 / Fold change vs veh, ZNF507 / RFU, DGCR2 / Fold change vs veh, DGCR2 / RFU, WDSUB1 / Fold change vs veh, WDSUB1 / Fold change vs veh, HSP90B1 /// MIR3652 / RFU, ADSS / Fold change vs veh, ADSS / RFU, GK / Fold change vs veh, GK / RFU, ZNF148 / Fold change vs veh, ZNF148 / RFU, TAF9 / Fold change vs veh, TAF9 / RFU, SLC1A5 / Fold change vs veh, SLC1A5 / RFU, SLMO2 / Fold change vs veh, SLMO2 / RFU, ABCC4 / Fold change vs veh, ABCC4 / RFU, LOC101060439 /// RAP1B / Fold change vs veh, LOC101060439 /// RAP1B / RFU, RFX7 / Fold change vs veh, RFX7 / RFU, GTPBP10 / Fold change vs veh, GTPBP10 / RFU, CNEP1R1 / Fold change vs veh, CNEP1R1 / RFU, BIVM-ERCC5 /// ERCC5 / Fold change vs veh, BIVM-ERCC5 /// ERCC5 / RFU, ILF3 / Fold change vs veh, ILF3 / RFU 11762660_at / Fold change /veh 11762660_at / RFU VCAN (11757783_s_at) / Fold change /veh VCAN (11757783_s_at) / RFU DDX43 (11728927_at) / Fold change /veh DDX43 (11728927_at) / RFU KRT8 (11758188_x_at) / Fold change /veh KRT8 (11758188_x_at) / RFU NKD1 (11759106_at) / Fold change /veh NKD1 (11759106_at) / RFU SRD5A1 (11742802_a_at) / Fold change /veh SRD5A1 (11742802_a_at) / RFU TPSAB1 /// TPSB2 (11721975_s_at) / Fold change /veh TPSAB1 /// TPSB2 (11721975_s_at) / RFU GSTM3 (11746129_a_at) / Fold change /veh GSTM3 (11746129_a_at) / RFU IL23R (11737362_x_at) / Fold change /veh IL23R (11737362_x_at) / RFU TMEM51 (11727254_a_at) / Fold change /veh TMEM51 (11727254_a_at) / RFU PIWIL2 (11732686_x_at) / Fold change /veh PIWIL2 (11732686_x_at) / RFU ORM1 (11744905_x_at) / Fold change /veh ORM1 (11744905_x_at) / RFU CCDC152 (11743942_at) / Fold change /veh CCDC152 (11743942_at) / RFU ECM1 (11717891_a_at) / Fold change /veh ECM1 (11717891_a_at) / RFU IL23R (11748794_a_at) / Fold change /veh IL23R (11748794_a_at) / RFU TNFAIP8L3 (11732012_x_at) / Fold change /veh TNFAIP8L3 (11732012_x_at) / RFU MBOAT4 (11741988_at) / Fold change /veh MBOAT4 (11741988_at) / RFU 11764193_at / Fold change /veh 11764193_at / RFU TMEM53 (11763286_at) / Fold change /veh TMEM53 (11763286_at) / RFU MAGEB2 (11727129_at) / Fold change /veh MAGEB2 (11727129_at) / RFU TMEM200A (11744735_a_at) / Fold change /veh TMEM200A (11744735_a_at) / RFU CCDC152 (11751479_a_at) / Fold change /veh CCDC152 (11751479_a_at) / RFU FAM211A (11726209_a_at) / Fold change /veh FAM211A (11726209_a_at) / RFU RGS16 (11746705_a_at) / Fold change /veh RGS16 (11746705_a_at) / RFU VCAN (11755009_s_at) / Fold change /veh VCAN (11755009_s_at) / RFU RHOB (11743442_s_at) / Fold change /veh RHOB (11743442_s_at) / RFU RGS16 (11720943_a_at) / Fold change /veh RGS16 (11720943_a_at) / RFU RGS16 (11720944_at) / Fold change /veh RGS16 (11720944_at) / RFU, VPS4B / Fold change vs veh, VPS4B / RFU, CREB1 / Fold change vs veh, CREB1 / RFU, DNAJC13 / Fold change vs veh, DNAJC13 / RFU, GNAQ / Fold change vs veh, GNAQ / RFU, CDK5R1 / Fold change vs veh, CDK5R1 / RFU, ZRANB3 / Fold change vs veh, ZRANB3 / RFU, CUL4A / Fold change vs veh, CUL4A / RFU, CCNY / Fold change vs veh, CCNY / RFU, UFL1 / Fold change vs veh, UFL1 / RFU, COG3 / Fold change vs veh, COG3 / RFU, DIAPH2 / Fold change vs veh, DIAPH2 / RFU, SKA2 / Fold change vs veh, SKA2 / RFU, AFF3 / Fold change vs veh, AFF3 / RFU, LMF1 / Fold change vs veh, LMF1 / RFU, IPO11 / Fold change vs veh, IPO11 / RFU, DFFB / Fold change vs veh, DFFB / RFU, FOXP1 / Fold change vs veh, FOXP1 / RFU, CARD8 / Fold change vs veh, CARD8 / RFU, STRN3 / Fold change vs veh, STRN3 / RFU, ADK / Fold change vs veh, ADK / RFU, RASSF2 / Fold change vs veh, RASSF2 / RFU, WIPF1 / Fold change vs veh, WIPF1 / RFU, LARP1B / Fold change vs veh, LARP1B / RFU, RASA1 / Fold change vs veh, RASA1 / RFU, RB1 / Fold change vs veh, RB1 / RFU, PPFIA1 / Fold change vs veh, PPFIA1 / RFU, MAT2A / Fold change vs veh, MAT2A / RFU, CCT5 / Fold change vs veh, CCT5 / RFU, WDR92 / Fold change vs veh, WDR92 / RFU, CUX1 / Fold change vs veh, CUX1 / RFU, TTC7A / Fold change vs veh, TTC7A / RFU, TMEM135 / Fold change vs veh, TMEM135 / RFU, DEPTOR / Fold change vs veh, DEPTOR / RFU, CPM / Fold change vs veh, CPM / RFU, DNAJB6 / Fold change vs veh, DNAJB6 / RFU, CACNA2D3 / Fold change vs veh, CACNA2D3 / RFU, DTX4 / Fold change vs veh, DTX4 / RFU, TFCP2 / Fold change vs veh, TFCP2 / RFU, GMCL1 /// GMCL1P1 / Fold change vs veh, GMCL1 /// GMCL1P1 / RFU, AEBP2 / Fold change vs veh, AEBP2 / RFU, SNHG1 /// SNORD22 /// SNORD25 /// SNORD26 /// SNORD27 /// SNORD28 /// SNORD29 /// SNORD31 / Fold change vs veh, SNHG1 /// SNORD22 /// SNORD25 /// SNORD26 /// SNORD27 /// SNORD28 /// SNORD29 /// SNORD31 / Fold change (Aza/veh), C12orf56 (ProbeSet 11735607_a_at) / Fold change (ACY-1035/veh), C12orf56 (ProbeSet 11735607_a_at) / Fold change (Aza/veh), FGFR1OP (ProbeSet 11751329_s_at) / Fold change (ACY-1035/veh), FGFR1OP (ProbeSet 11751329_s_at) / Fold change (Aza/veh), VPS36 (ProbeSet 11739960_a_at) / Fold change (ACY-1035/veh), VPS36 (ProbeSet 11739960_a_at) / RFU SYPL1 (11715823_x_at) / Fold change /veh SYPL1 (11715823_x_at) / RFU IGFBP7 (11715501_s_at) / Fold change /veh IGFBP7 (11715501_s_at) / RFU REEP3 (11722064_at) / Fold change /veh REEP3 (11722064_at) / RFU IGLL1 (11728026_x_at) / Fold change /veh IGLL1 (11728026_x_at): dose or concentration left out as unconfirmed
Conditions: MV-4-11 cells, 48 hours

With `Nc1ccc(-c2cccs2)cc1NC(=O)c1ccc2c(c1)cc(C1CC1)n2CCN1CCOCC1` [ACY-1035] as the compound, how does the “RFU ISYNA1 (11749810_s_at)” value read?
Its value is 21.49 RFU.
